From the CheMixHub viscosity set

Test: xn = mol fraction of the nth substance listed

ClC=C(Cl)Cl + C1CCOC1
303.15 K, 101 kPa
Settings | viscosity [mPa·s]
x2 = 0.0614 | 0.5484
x2 = 0.1057 | 0.5631
x2 = 0.2281 | 0.5879
x2 = 0.3529 | 0.5932
x2 = 0.4929 | 0.5817
x2 = 0.5166 | 0.5781
x2 = 0.64 | 0.556
x2 = 0.7608 | 0.5289
x2 = 0.8813 | 0.4983
x2 = 0.9421 | 0.4822

O=C(CO)[C@@H](O)[C@H](O)[C@H](O)CO + CS(C)=O
viscosity [mPa·s], 101 kPa
Settings | x1 = 0.04904 | x1 = 0.07411 | x1 = 0.106 | x1 = 0.1269 | x1 = 0.151 | x1 = 0.1722 | x1 = 0.1979 | x1 = 0.2243
298.15 K | 3.98 | 6.037 | 10.34 | 14.99 | 23.48 | 35.39 | 59.46 | 104.7
308.15 K | 3.096 | 4.529 | 7.33 | 10.21 | 15.13 | 21.64 | 34.14 | 55.88
318.15 K | 2.48 | 3.507 | 5.442 | 7.283 | 10.35 | 14.17 | 21.19 | 32.62

ClC=C(Cl)Cl + CC#N
Settings | viscosity [mPa·s]
298.15 K, 101 kPa, x1 = 0.0501 | 0.358
298.15 K, 101 kPa, x1 = 0.099 | 0.373
298.15 K, 101 kPa, x1 = 0.2003 | 0.406
298.15 K, 101 kPa, x1 = 0.3001 | 0.434
298.15 K, 101 kPa, x1 = 0.3984 | 0.461
298.15 K, 101 kPa, x1 = 0.4976 | 0.485
298.15 K, 101 kPa, x1 = 0.5968 | 0.504
298.15 K, 101 kPa, x1 = 0.7206 | 0.526
298.15 K, 101 kPa, x1 = 0.7798 | 0.532
298.15 K, 101 kPa, x1 = 0.9038 | 0.541
298.15 K, 101 kPa, x2 = 0.0708 | 0.524
298.15 K, 101 kPa, x2 = 0.1846 | 0.515
298.15 K, 101 kPa, x2 = 0.3572 | 0.494
298.15 K, 101 kPa, x2 = 0.4854 | 0.471
298.15 K, 101 kPa, x2 = 0.5616 | 0.458
298.15 K, 101 kPa, x2 = 0.6719 | 0.433
298.15 K, 101 kPa, x2 = 0.775 | 0.403
298.15 K, 101 kPa, x2 = 0.9121 | 0.369
303.15 K, 101.32 kPa, x2 = 0.0893 | 0.5209
303.15 K, 101.32 kPa, x2 = 0.1803 | 0.5171
303.15 K, 101.32 kPa, x2 = 0.2502 | 0.5072
303.15 K, 101.32 kPa, x2 = 0.3697 | 0.4877
303.15 K, 101.32 kPa, x2 = 0.5273 | 0.4539
303.15 K, 101.32 kPa, x2 = 0.6422 | 0.4238
303.15 K, 101.32 kPa, x2 = 0.7089 | 0.4071
303.15 K, 101.32 kPa, x2 = 0.7814 | 0.3824
303.15 K, 101.32 kPa, x2 = 0.8363 | 0.3654
303.15 K, 101.32 kPa, x2 = 0.9308 | 0.3451
308.15 K, 101 kPa, x2 = 0.0708 | 0.483
308.15 K, 101 kPa, x2 = 0.1846 | 0.471
308.15 K, 101 kPa, x2 = 0.3572 | 0.451
308.15 K, 101 kPa, x2 = 0.4854 | 0.43
308.15 K, 101 kPa, x2 = 0.5616 | 0.417
308.15 K, 101 kPa, x2 = 0.6719 | 0.396
308.15 K, 101 kPa, x2 = 0.775 | 0.37
308.15 K, 101 kPa, x2 = 0.9121 | 0.341
318.15 K, 101 kPa, x2 = 0.0708 | 0.443
318.15 K, 101 kPa, x2 = 0.1846 | 0.431
318.15 K, 101 kPa, x2 = 0.3572 | 0.413
318.15 K, 101 kPa, x2 = 0.4854 | 0.393
318.15 K, 101 kPa, x2 = 0.5616 | 0.384
318.15 K, 101 kPa, x2 = 0.6719 | 0.364
318.15 K, 101 kPa, x2 = 0.775 | 0.342
318.15 K, 101 kPa, x2 = 0.9121 | 0.315

ClC=C(Cl)Cl + CCC(C)O
303.15 K, 101.3 kPa
Settings | viscosity [mPa·s]
x1 = 0.1104 | 1.721
x1 = 0.213 | 1.3
x1 = 0.312 | 1.042
x1 = 0.4086 | 0.881
x1 = 0.5218 | 0.761
x1 = 0.6132 | 0.695
x1 = 0.7094 | 0.647
x1 = 0.8124 | 0.606
x1 = 0.9012 | 0.57

ClC=C(Cl)Cl + CC(C)O
viscosity [mPa·s]
Settings | 293.15 K | 303.15 K | 313.15 K
101.3 kPa, x1 = 0.1036 | – | 1.363 | –
101.3 kPa, x1 = 0.2204 | – | 1.053 | –
101.3 kPa, x1 = 0.3432 | – | 0.849 | –
101.3 kPa, x1 = 0.4172 | – | 0.765 | –
101.3 kPa, x1 = 0.5133 | – | 0.686 | –
101.3 kPa, x1 = 0.6024 | – | 0.641 | –
101.3 kPa, x1 = 0.7196 | – | 0.603 | –
101.3 kPa, x1 = 0.8017 | – | 0.583 | –
101.3 kPa, x1 = 0.9028 | – | 0.556 | –
101.33 kPa, x2 = 0.15 | 0.7418 | 0.6628 | 0.5527
101.33 kPa, x2 = 0.3 | 0.9127 | 0.7947 | 0.6334
101.33 kPa, x2 = 0.45 | 1.083 | 0.9265 | 0.7141
101.33 kPa, x2 = 0.6 | 1.257 | 1.058 | 0.7948
101.33 kPa, x2 = 0.75 | 1.428 | 1.19 | 0.8775
101.33 kPa, x2 = 0.9 | 1.596 | 1.322 | 0.9562
